pIC50: −log10 of the molar value.

One data set deals with chick chorioallantoic membrane. As to the kind of experiment: Chick chorioallantoic membrane (CAM) developmental angiogenesis assay. The format is in vivo, chicken. The conditions noted are these: 50 μm. On the procedure:
e. Chick chorioallantoic membrane assay (CAM assay): was performed on fertilized chicken eggs and used as a test for angiogenesis inhibition.
Approximately 4 dozen fertilized eggs were sprayed with 70% ETOH and placed in a 180 egg incubator (GQF Sportsman incubator). The eggs were incubated “rounded-side down” and were fully rotated along the vertical axis every 30 minutes at 37° C. under 90% relative humidity.
After 4 days, the eggs were placed upside down (round side up) for 5-10 minutes, before a round hole approximately 3 centimeters in diameter was created above the pointed end or “air hole” of the egg using sterile blunt-ended forceps (“deshelling”). The inner membrane was also removed, and the embryo was visible through this opening. A small portion of the outer membrane was then carefully removed using fine-tipped forceps in order to expose the CAM. Sterile Parafilm was placed over the de-shelled opening to create an airtight seal. The eggs were returned to the incubator (with no rotation) for 2 days.
Viable eggs were then treated with control and inhibitor compounds. Gelfoam™ gelatin sterile sponge (Upjohn) or 1-2 mm discs of methylcellulose saturated with physiological saline, buffer or an appropriate dilution of the compounds under investigation. The Gelfoam™ fragments of methylcellulose discs were added directly to the surface of the developing CAM. Care was taken not to add the treatment directly over a large vessel. The shells were marked in 3 places to aid in stereotactic localization of the treatment sponge or disc. An average of 6 eggs were included for each experimental condition. The treated eggs were returned to the incubator for 2 days.
The eggs were then assessed for blood vessel growth inhibition. Photomicrographs for records and visual examination were made using a Nikon dissecting microscope with an attached Nikon 35-mm camera body.
Turning to `NC(=O)c1nnsc1Nc1cccc2ccccc12` [KP 27301, 5-(Naphthalen-1-ylamino)-[1,2,3]thiadiazole-4-carboxylicacid amide], the % Inhibition (in general, the percentage by which the read-out fell short of the control) is recorded as 100%. Same read-out and setting: with `CCNc1snnc1C(N)=O` [KP 27304, 5-Ethylamino-[1,2,3]thiadiazole-4-carboxylicacid amide] the figure was 60%.

A further data set addresses T1, integrin linked kinase (ILK1), full-length recombinant GST-ILK (Homo sapiens, UniProt Q13418).
T1 construct: The target integrin linked kinase is a full-length recombinant protein expressed in sF9 insect cells by baculovirus infection; made in house; host or cells: Baculovirus; virus amplified in Sf9 cells, protein expressed in Hi5 insect cells
T1 sequence (Q13418 1-452): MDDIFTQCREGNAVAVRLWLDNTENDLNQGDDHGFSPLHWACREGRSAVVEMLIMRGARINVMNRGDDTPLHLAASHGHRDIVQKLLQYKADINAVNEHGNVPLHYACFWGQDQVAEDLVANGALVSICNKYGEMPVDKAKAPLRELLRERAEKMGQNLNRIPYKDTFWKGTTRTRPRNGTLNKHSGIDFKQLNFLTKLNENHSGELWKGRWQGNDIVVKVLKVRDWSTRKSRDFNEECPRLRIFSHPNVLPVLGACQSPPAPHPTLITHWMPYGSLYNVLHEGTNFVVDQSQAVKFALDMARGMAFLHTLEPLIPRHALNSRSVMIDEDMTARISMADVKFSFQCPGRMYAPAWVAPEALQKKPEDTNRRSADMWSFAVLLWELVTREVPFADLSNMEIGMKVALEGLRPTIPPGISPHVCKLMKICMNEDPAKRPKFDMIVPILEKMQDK
The data set is described as follows: Integrin linked kinase inhibition assay (radioactive phosphate incorporation, scintillation counting). The format is biochemical.
Conditions: not given
As for the experimental part: Compounds are screened using a series of disease related kinase targets, such as integrin linked kinase-1. Synthesized libraries of compounds are tested against each of the targets to find compounds that inhibit one of the targets preferentially.
Inhibition of the targets is measured by scintillation counting; the incorporation of radioactive phosphate onto a specific substrate which is immobilized onto a filter paper at the end of the assay. To provide meaningful measurements of inhibition, the assays are performed both in the absence and presence of specific and known inhibitors, and the amount of incorporated radioactivity is compared to provide a baseline measurement.
Inhibition Assay: Compounds listed in Table 1 were lyophilized and stored at −20° C. Stock solutions were made by weighing out the compounds and dissolving them in dimethyl sulfoxide (DMSO) to a standard concentration, usually 20 mM, and stored at −20° C. […] Diluted 100% DMSO was used as a negative control.
A volume of 5 μl of each compound dilution were robotically pipetted to Costar serocluster plates maintaining the same plate format. All assays consisted of the following volumes: • 5 μl diluted compound • 10 μl enzyme preparation • 5 μl substrate • 5 μl assay ATP and were then incubated 15 min at room temperature.
From each reaction, 10 μl of reaction mix was spotted onto Millipore Multiscreen-PH opaque plates and washed 2×10 min in 1% phosphoric acid. The plates were dried for at 40° C. for 30 min, then the substrate phosphate complexes were quantitated by scintillation counting. These Millipore plates are in a 96 well format with immobilized P81 phosphocellulose membranes. Both the phosphorylated and non-phosphorylated form of the substrate bind to the membrane while ATP (unincorporated phosphate) is removed in the subsequent wash steps.
Integrin Linked Kinase: The target integrin linked kinase is a full-length recombinant protein expressed in sF9 insect cells by baculovirus infection. The ILK1 substrate is […]-amide.
Recombinant ILK protein was expressed using cultured insect cells and a baculovirus expression system.
A large scale plasmid preparation of the resulting transfer construct was made using a Qiagen Plasmid Midi Kit. This ILK transfer construct was then co-transfected with BaculoGold DNA (Pharmingen) into Sf9 insect cells (Invitrogen) and a high titre preparation of GST-ILK recombinant baculovirus was produced by amplification in Sf9 cells. Liter scale expression of GST-ILK recombinant protein was done in 1000 ml spinner flasks (Bellco) by infection of Hi5 insect cells (Invitrogen) grown in Ex-Cell 400 Serum Free Media (JRH Biosciences) at a multiplicity of infection of approximately 5. The cells were harvested three days after infection and lysed in Hypotonic Lysis Buffer (HLB; 10 mM imidazole, 5 mM EDTA, 0.1% β-mercaptoethanol, 10 ug/ml PMSF, 1 mM benzamidine) by sonication. The lysate was centrifuged at 10,000×g for 20 min and the supernatant was discarded. The pellet was washed twice in HLB and then washed twice in High Salt Buffer (HSB; 500 mM NaCl, 10 mM imidazole, 5 mM EDTA, 0.1% β-mercaptoethanol, 10 ug/ml PMSF, 1 mM benzamidine). The pellet was then resuspended in DNAse-ATP Buffer (DAB; 10 mM MgCl2, 1 mM MnCl2, β-methyl aspartic acid, 2 mM NaF, 0.55 mg/ml ATP, 1 ug/ml DNAse I, 1% NP-40, 10 mM imidazole, 5 mM EDTA, 0.1% β-mercaptoethanol, 10 ug/ml PMSF, 1 mM benzamidine) and stirred for 30 min at room temperature, and then centrifuged at 10,000×g for 20 min. The pellet was resuspended in High Salt Detergent Buffer (HDB; 1% NP-40, 1% Triton X-100, 500 mM NaCl, 10 mM imidazole, 5 mM EDTA, 0.1% β-mercaptoethanol, 10 ug/ml PMSF, 1 mM benzamidine), stirred for 30 min at room temperature, and then centrufuged at 10,000×g for 20 min. The pellet was then washed once in each of HDB, HSB, and HLB, centrifuging at 10,000×g each time. Finally, the pellet was resuspended in HLB.
Consider `NC(=O)c1nnsc1Nc1ccc(Br)cc1` [KP 27296, 5-(4-Bromophenylamino)-[1,2,3]thiadiazole-4-carboxylicacid amide], for which the pIC50 (in general, the negative decadic logarithm of the IC50, by convention in mol/L) was less than 4.70. For `COc1ccc(Nc2snnc2C(N)=O)cc1` [KP 27297, 5-(4-Methoxyphenylamino)-[1,2,3]thiadiazole-4-carboxylicacid amide], the pIC50 is less than 4.70.

With `CCOC(=O)Nc1snnc1C(N)=O` [KP 27298, (4-Carbamoyl-[1,2,3]thiadiazol-5-yl)-carbamicacid ethyl ester], the pIC50 is less than 4.70. Same read-out and setting: as for `NC(=O)c1nnsc1NC12CC3CC(CC(C3)C1)C2` [KP 27299, 5-(Adamantan-1-ylamino)-[1,2,3]thiadiazole-4-carboxylicacid amide], the figure is less than 4.70; as for `NC(=O)c1nnsc1NC1CCCCC1` [KP 27300, 5-Cyclohexylamino-[1,2,3]thiadiazole-4-carboxylicacid amide], less than 4.70; as for `NC(=O)c1nnsc1NCc1ccccc1` [KP 27302, 5-Benzylamino-[1,2,3]thiadiazole-4-carboxylicacid amide], less than 4.70. Turning to `NC(=O)c1nnsc1NC(=O)c1ccccc1` [KP 27303, 5-Benzoylamino-[1,2,3]thiadiazole-4-carboxylicacid amide], the pIC50 was less than 4.70.

Turning to `CCNc1snnc1C(N)=O` [KP 27304, 5-Ethylamino-[1,2,3]thiadiazole-4-carboxylicacid amide], the pIC50 was less than 4.70.

`CCCCCCNc1snnc1C(N)=O` [KP 27305, 5-Hexylamino-[1,2,3]thiadiazole-4-carboxylicacid amide]: the pIC50 is less than 4.70. The same measure, in the same setting: as for `CN(c1ccccc1)c1snnc1C(N)=O` [KP 27420, 5-(Methylphenylamino)-[1,2,3]thiadiazole-4-carboxylicacid amide], the figure is less than 4.70; as for `CC(=O)NC(=O)c1nnsc1Nc1ccccc1` [KP 27421, 5-Phenylamino-[1,2,3]thiadiazole-4-carboxylicacid acetylamide], less than 4.70; as for `NCc1nnsc1Nc1ccccc1` [KP 27422, (4-Aminomethyl-[1,2,3]thiadiazol-5-yl)phenylamine], less than 4.70. Same read-out and setting: as for `O=C(O)c1nnsc1Nc1ccccc1` [KP-27271, 5-Phenylamino-[1,2,3]thiadiazole-4-carboxylicacid], the figure is less than 4.70.

Tested on in the next data set: not given
Experiment: not given
Conditions: not given
For the compound `CN(c1ccccc1)c1snnc1C(N)=O` [KP 27420, 5-(Methylphenylamino)-[1,2,3]thiadiazole-4-carboxylicacid amide], the melting point (commonly the temperature of the solid-liquid transition) was 194 to 196 °C.
